13 molecules from patent publication US20260116867A1, “PROTEOLYSIS TARGETING CHIMERAS FOR HUMAN PREGNANE X RECEPTOR AND FOR DEGRADATION OF GSPT1” (ST. JUDE CHILDREN'S RESEARCH HOSPITAL, priority 2022, published 2026) can be followed below.

Test [1] has as its target T1, PXR (Homo sapiens, UniProt O75469).
T1 sequence (O75469 1-434): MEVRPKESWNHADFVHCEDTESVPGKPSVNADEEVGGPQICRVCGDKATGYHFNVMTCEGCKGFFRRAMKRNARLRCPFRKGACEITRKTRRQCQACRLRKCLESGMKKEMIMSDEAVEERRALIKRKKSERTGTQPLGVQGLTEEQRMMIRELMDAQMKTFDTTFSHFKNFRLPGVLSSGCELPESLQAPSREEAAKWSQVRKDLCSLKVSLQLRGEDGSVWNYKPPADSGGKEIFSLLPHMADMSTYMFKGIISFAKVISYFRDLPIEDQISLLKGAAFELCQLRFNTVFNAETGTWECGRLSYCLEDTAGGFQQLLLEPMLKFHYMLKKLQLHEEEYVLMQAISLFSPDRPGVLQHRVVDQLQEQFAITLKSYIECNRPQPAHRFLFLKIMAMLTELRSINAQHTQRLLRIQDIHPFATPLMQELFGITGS
Kind of test: hPXR binding assay. Particulars: for inhibition at 10 µM: read-out: Binding (% inhibition at 10 μM).

For test [2], the target named is T1, PXR. Kind of test: cell-based hPXR inverse agonistic assay. Particulars: for inhibition at 10 µM: read-out: Inverse agonist (% inhibition at 10 μM); for IC50: read-out: Inverse agonist (IC50/μM).
For test [3], the target named is T1, PXR. Briefly: cell-based hPXR antagonistic assay. Particulars: for inhibition at 10 µM: read-out: Antagonist (% inhibition at 10 μM); for IC50: read-out: Antagonist (IC50/μM).

As to `COc1ccc(OC)c(-n2nnc(C(=O)Oc3cccc4c3C(=O)N(C3CCC(=O)NC3=O)C4=O)c2C)c1` (centres unmarked) [Compound M2, 2-(2,6-dioxopiperidin-3-yl)-1,3-dioxoisoindolin-4-yl 1-(2,5-dimethoxyphenyl)-5-methyl-1H-1,2,3-triazole-4-carboxylate], on PXR [1], the IC50 was 2.69 ± 1.33 µM and the inhibition at 10 µM amounted to 46%.

`COc1ccc(OC)c(-n2nnc(C(=O)Nc3cc(OCCCCN4C(=O)CCC(N5Cc6c(N)cccc6C5=O)C4=O)cc(C(C)(C)C)c3)c2C)c1` (centres unmarked) [Compound N4, N-(3-(4-(3-(4-amino-1-oxoisoindolin-2-yl)-2,6-dioxopiperidin-1-yl)butoxy)-5-(tert-butyl)phenyl)-1-(2,5-dimethoxyphenyl)-5-methyl-1H-1,2,3-triazole-4-carboxamide]: the IC50 at PXR [1] is 0.087 ± 0.022 µM; at PXR [2], 0.044 ± 0.008 µM; on PXR [3], 0.17 ± 0.0045 µM. The inhibition at 10 µM on PXR [1] came out at 37%; at PXR [2], 97%; on PXR [3], 103%.

Take `COc1ccc(OC)c(-n2nnc(C(=O)Nc3cc(C(C)(C)C)ccc3OCCOCCOCCOCCN3C(=O)CCC(N4Cc5c(N)cccc5C4=O)C3=O)c2C)c1` (centres unmarked) [Compound N2, N-(2-(2-(2-(2-(2-(3-(4-amino-1-oxoisoindolin-2-yl)-2,6-dioxopiperidin-1-yl)ethoxy)ethoxy)ethoxy)ethoxy)-5-(tert-butyl)phenyl)-1-(2,5-dimethoxyphenyl)-5-methyl-1H-1,2,3-triazole-4-carboxamide]: on PXR [1], the IC50 turned out to be 7.23 ± 4.88 µM and the inhibition at 10 µM turned out to be 27%. Moreover, at PXR [3], the inhibition at 10 µM was 32% and the IC50 was determined as 5 ± 1.16 µM.

Regarding `COc1ccc(OC)c(-n2nnc(C(=O)Nc3cc(C(C)(C)C)ccc3OCCCCCCCCOc3cccc4c3C(=O)N(C3CCC(=O)NC3=O)C4=O)c2C)c1` (centres unmarked) [Compound M19, N-(5-(tert-butyl)-2-((8-((2-(2,6-dioxopiperidin-3-yl)-1,3-dioxoisoindolin-4-yl)oxy)octyl)oxy)phenyl)-1-(2,5-dimethoxyphenyl)-5-methyl-1H-1,2,3-triazole-4-carboxamide], on PXR [3], the inhibition at 10 µM is 30% and the IC50 was found to be 2.52 ± 1.38 µM.

Regarding `COc1ccc(OC)c(-n2nnc(C(=O)Nc3cc(OCCOCCOCCOCCOCCOCCN4C(=O)CCC(N5C(=O)c6cccc(N)c6C5=O)C4=O)cc(C(C)(C)C)c3)c2C)c1` (centres unmarked) [Compound N7, N-(3-((17-(3-(4-amino-1,3-dioxoisoindolin-2-yl)-2,6-dioxopiperidin-1-yl)-3,6,9,12,15-pentaoxaheptadecyl)oxy)-5-(tert-butyl)phenyl)-1-(2,5-dimethoxyphenyl)-5-methyl-1H-1,2,3-triazole-4-carboxamide], the IC50 was 0.43 ± 0.027 µM at PXR [1], 1.12 ± 0.3 µM on PXR [2] and 0.52 ± 0.095 µM on PXR [3]. For the same molecule, the inhibition at 10 µM is 48% on PXR [1], 36% on PXR [2] and 83% at PXR [3].

With `COc1ccc(OC)c(-n2nnc(C(=O)Nc3cc(C(C)(C)C)ccc3OCCOCCOCCOCCOCCOCCOc3cccc4c3C(=O)N(C3CCC(=O)NC3=O)C4=O)c2C)c1` (centres unmarked) [Compound M20, N-(5-(tert-butyl)-2-((17-((2-(2,6-dioxopiperidin-3-yl)-1,3-dioxoisoindolin-4-yl)oxy)-3,6,9,12,15-pentaoxaheptadecyl)oxy)phenyl)-1-(2,5-dimethoxyphenyl)-5-methyl-1H-1,2,3-triazole-4-carboxamide], on PXR [1], the IC50 was 4.9 ± 0.8 µM and the inhibition at 10 µM was 64%. Also, on PXR [3], the inhibition at 10 µM was found to be 58% and the IC50 turned out to be 6.33 ± 0.74 µM.

`COc1ccc(OC)c(-n2nnc(C(=O)Nc3cc(Nc4cccc5c4C(=O)N(C4CCC(=O)NC4=O)C5=O)cc(C(C)(C)C)c3)c2C)c1` (centres unmarked) [Compound M5, N-(3-(tert-butyl)-5-((2-(2,6-dioxopiperidin-3-yl)-1,3-dioxoisoindolin-4-yl)amino)phenyl)-1-(2,5-dimethoxyphenyl)-5-methyl-1H-1,2,3-triazole-4-carboxamide]: the results for the IC50 at PXR [1], at PXR [2] and at PXR [3] were 0.083 ± 0.0041 µM, 0.0078 ± 0.002 µM and 0.052 ± 0.0066 µM, respectively. In addition, the inhibition at 10 µM on PXR [1] stood at 69%; on PXR [2], 141%; on PXR [3], 107%.

As for `COc1ccc(OC)c(-n2nnc(C(=O)Nc3cc(C(C)(C)C)ccc3OCCCCNc3cccc4c3CN(C3CCC(=O)NC3=O)C4=O)c2C)c1` (centres unmarked) [Compound M13, N-(5-(tert-butyl)-2-(4-((2-(2,6-dioxopiperidin-3-yl)-1-oxoisoindolin-4-yl)amino)butoxy)phenyl)-1-(2,5-dimethoxyphenyl)-5-methyl-1H-1,2,3-triazole-4-carboxamide], on PXR [3], the inhibition at 10 µM stood at 40% and the IC50 is 41 ± 5.3 µM.

As to `COc1ccc(OC)c(-n2nnc(C(=O)Nc3cc(OCCCCNc4cccc5c4CN(C4CCC(=O)NC4=O)C5=O)cc(C(C)(C)C)c3)c2C)c1` (centres unmarked) [Compound M14, N-(3-(tert-butyl)-5-(4-((2-(2,6-dioxopiperidin-3-yl)-1-oxoisoindolin-4-yl)amino)butoxy)phenyl)-1-(2,5-dimethoxyphenyl)-5-methyl-1H-1,2,3-triazole-4-carboxamide], the IC50 at PXR [1] was found to be 0.13 ± 0.051 µM; at PXR [2], 0.43 ± 0.14 µM; on PXR [3] it was 1.86 ± 0.53 µM. The inhibition at 10 µM was 22% at PXR [1], 94% at PXR [2] and 82% at PXR [3].

As to `COc1ccc(OC)c(-n2nnc(C(=O)Nc3cc(OCCCCCCCCOc4cccc5c4C(=O)N(C4CCC(=O)NC4=O)C5=O)cc(C(C)(C)C)c3)c2C)c1` (centres unmarked) [Compound M16, N-(3-(tert-butyl)-5-((8-((2-(2,6-dioxopiperidin-3-yl)-1,3-dioxoisoindolin-4-yl)oxy)octyl)oxy)phenyl)-1-(2,5-dimethoxyphenyl)-5-methyl-1H-1,2,3-triazole-4-carboxamide], on PXR [3], the inhibition at 10 µM worked out at 57% and the IC50 turned out to be 2.02 ± 0.47 µM.

As for `COc1ccc(OC)c(-n2nnc(C(=O)Nc3cc(NC(=O)CCCNC(=O)COc4cccc5c4C(=O)N(C4CCC(=O)NC4=O)C5=O)cc(C(C)(C)C)c3)c2C)c1` (centres unmarked) [Compound M15, N-(3-(tert-butyl)-5-(4-(2-((2-(2,6-dioxopiperidin-3-yl)-1,3-dioxoisoindolin-4-yl)oxy)acetamido)butanamido)phenyl)-1-(2,5-dimethoxyphenyl)-5-methyl-1H-1,2,3-triazole-4-carboxamide], on PXR [1], the IC50 came out at 2.19 ± 1.35 µM and the inhibition at 10 µM was 30%.

In the case of `COc1ccc(OC)c(-n2nnc(C(=O)Nc3cc(OCCCCCCCCN4C(=O)CCC(N5Cc6c(N)cccc6C5=O)C4=O)cc(C(C)(C)C)c3)c2C)c1` (centres unmarked) [Compound N6, N-(3-((8-(3-(4-amino-1-oxoisoindolin-2-yl)-2,6-dioxopiperidin-1-yl)octyl)oxy)-5-(tert-butyl)phenyl)-1-(2,5-dimethoxyphenyl)-5-methyl-1H-1,2,3-triazole-4-carboxamide], at PXR [3], the inhibition at 10 µM came to 11% and the IC50 worked out at 6.51 ± 0.71 µM.

In the case of `COc1ccc(OC)c(-n2nnc(C(=O)Nc3cc(NC(=O)COCCOCCOCCOCCNc4cccc5c4C(=O)N(C4CCC(=O)NC4=O)C5=O)cc(C(C)(C)C)c3)c2C)c1` (centres unmarked) [Compound M17, N-(3-(tert-butyl)-5-(14-((2-(2,6-dioxopiperidin-3-yl)-1,3-dioxoisoindolin-4-yl)amino)-3,6,9,12-tetraoxatetradecanamido)phenyl)-1-(2,5-dimethoxyphenyl)-5-methyl-1H-1,2,3-triazole-4-carboxamide], the inhibition at 10 µM on PXR [2] was determined as 84%; at PXR [3], 70%. At PXR [2], the IC50 is 1.98 ± 0.25 µM.
